Key:
[1] = tested on: SCC25; assay: Efficacy against head and neck tumour cell line SCC25; type: cell-based; details: substance alone, treatment period of 72 hours (FIG. 1)
Source text: (§1) The biological activity of 7β-hydroxycholesterol and caroverin alone and also combined with each other was investigated. The efficacy was checked using the head and neck tumour cell lines SCC9 and SCC25.

[2] = tested on: head and neck tumour cell lines SCC9 and SCC25; assay: Efficacy on tumour cells, cell line not given (cisplatin combinations, best concentration, proliferation); type: cell-based; details: combined with cisplatin (FIG. 2, FIG. 5); 7β-hydroxycholesterol in small doses
Source text: as §1

[3] = tested on: healthy cells; details: does not attack healthy cells; cited from earlier work
[4] = tested on: SCC9; assay: Efficacy against head and neck tumour cell line SCC9; type: cell-based; details: substance alone, treatment period of 72 hours (FIG. 1)
Source text: as §1

SMILES	efficacy against cell line [1]	synergistic effect combined with cisplatin [2]	toxicity [3]	efficacy against cell line [4]
CC(C)CCC[C@@H](C)[C@H]1CC[C@H]2[C@@H]3[C@@H](O)C=C4C[C@@H](O)CC[C@]4(C)[C@H]3CC[C@]12C [7β-hydroxycholesterol]	effective	synergistic effect	completely non-toxic	effective
CCN(CC)CCn1c(=O)c(Cc2ccc(OC)cc2)nc2ccccc21 [caroverin, 1-diethylaminoethyl-3-(p-methoxybenzyl)-1,2-dihydro-quinoxalin-2-one, reference compound]		could not be proved		
